Assay results: US10906873B2, “Substituted cyclic amides as herbicides” (FMC Corporation, priority 2015, dated 2021)

tested on: galium (catchweed bedstraw, Galium aparine); experiment: Test A postemergence, galium; assay type: in vivo; conditions: 125 g ai/ha, 0 to 100 scale
From the text: (§1) Seeds of plant species selected from barnyardgrass (Echinochloa crus-galli), crabgrass (large crabgrass, Digitaria sanguinalis), kochia (Kochia scoparia), ragweed (common ragweed, Ambrosia elatior), morningglory (Ipomoea spp.), velvetleaf (Abutilon theophrasti), ryegrass, It. (Italian ryegrass, Lolium multiflorum), foxtail, giant (giant foxtail, Setaria faberii), wheat (Triticum aestivum), corn (Zea mays), and pigweed (Amaranthus retroflexus), were planted into a blend of loam soil and sand and treated preemergence with a directed soil spray using test chemicals formulated in a non-phytotoxic solvent mixture which included a surfactant. At the same time, plants selected from these crop and weed species and also blackgrass (Alopecurus myosuroides), and galium (catchweed bedstraw, Galium aparine), were planted in pots containing the same blend of loam soil and sand and treated with postemergence applications of test chemicals formulated in the same manner. Plants ranged in height from 2 to 10 cm and were in the one- to two-leaf stage for the postemergence treatment. Treated plants and untreated controls were maintained in a greenhouse for approximately 10 d, after which time all treated plants were compared to untreated controls and visually evaluated for injury. Plant response ratings, summarized in Table A, are based on a 0 to 100 scale where 0 is no effect and 100 is complete control. A dash (-) response means no test result.

Structure (SMILES)	Plant response rating, Galium
O=C1NCC(Cc2cccc(F)c2F)C1C(=O)Nc1ccccc1C(F)(F)F (stereo not drawn) [Compound 10]	0

same assay, conditions: 500 g ai/ha, 0 to 100 scale

Structure (SMILES)	Plant response rating, Galium
O=C1NCC(Cc2cccc(F)c2F)C1C(=O)Nc1ccccc1C(F)(F)F (stereo not drawn) [Compound 10]	0

tested on: kochia (Kochia scoparia); experiment: Test A preemergence, kochia; assay type: in vivo; conditions: 125 g ai/ha, 0 to 100 scale
From the text: as §1

Structure (SMILES)	Plant response rating, Kochia
O=C1NCC(Cc2cccc(F)c2F)C1C(=O)Nc1ccccc1C(F)(F)F (stereo not drawn) [Compound 10]	0

same assay, conditions: 500 g ai/ha, 0 to 100 scale

Structure (SMILES)	Plant response rating, Kochia
O=C1NCC(Cc2cccc(F)c2F)C1C(=O)Nc1ccccc1C(F)(F)F (stereo not drawn) [Compound 10]	0

tested on: ragweed (common ragweed, Ambrosia elatior); experiment: Test A postemergence, ragweed; assay type: in vivo; conditions: 125 g ai/ha, 0 to 100 scale
From the text: as §1

Structure (SMILES)	Plant response rating, Ragweed
O=C1NCC(Cc2cccc(F)c2F)C1C(=O)Nc1ccccc1C(F)(F)F (stereo not drawn) [Compound 10]	0

same assay, conditions: 500 g ai/ha, 0 to 100 scale

Structure (SMILES)	Plant response rating, Ragweed
O=C1NCC(Cc2cccc(F)c2F)C1C(=O)Nc1ccccc1C(F)(F)F (stereo not drawn) [Compound 10]	0

tested on: ragweed (common ragweed, Ambrosia elatior); experiment: Test A preemergence, ragweed; assay type: in vivo; conditions: 125 g ai/ha, 0 to 100 scale
From the text: as §1

Structure (SMILES)	Plant response rating, Ragweed
O=C1NCC(Cc2cccc(F)c2F)C1C(=O)Nc1ccccc1C(F)(F)F (stereo not drawn) [Compound 10]	0

same assay, conditions: 500 g ai/ha, 0 to 100 scale

Structure (SMILES)	Plant response rating, Ragweed
O=C1NCC(Cc2cccc(F)c2F)C1C(=O)Nc1ccccc1C(F)(F)F (stereo not drawn) [Compound 10]	0

tested on: barnyardgrass (Echinochloa crus-galli); experiment: Test B flooded paddy test, barnyardgrass; assay type: in vivo; conditions: Flood, 500 g ai/ha; scale of 0 to 100 where 0 is no effect and 100 is complete control; 13 to 15 d
Procedure: (§2) Plant species in the flooded paddy test selected from rice (Oryza sativa), sedge, umbrella (small-flower umbrella sedge, Cyperus difformis), ducksalad (Heteranthera limosa), and barnyardgrass (Echinochloa crus-galli) were grown to the 2-leaf stage for testing. At time of treatment, test pots were flooded to 3 cm above the soil surface, treated by application of test compounds directly to the paddy water, and then maintained at that water depth for the duration of the test. Treated plants and controls were maintained in a greenhouse for 13 to 15 d, after which time all species were compared to controls and visually evaluated. Plant response ratings, summarized in Table B, are based on a scale of 0 to 100 where 0 is no effect and 100 is complete control. A dash (-) response means no test result.

Structure (SMILES)	Plant response rating, Barnyardgrass
O=C1NCC(Cc2cccc(F)c2F)C1C(=O)Nc1ccccc1C(F)(F)F (stereo not drawn) [Compound 10]	0

tested on: pigweed (Amaranthus retroflexus); experiment: Test A preemergence, pigweed; assay type: in vivo; conditions: 125 g ai/ha, 0 to 100 scale
From the text: as §1

Structure (SMILES)	Plant response rating, Pigweed
O=C1NCC(Cc2cccc(F)c2F)C1C(=O)Nc1ccccc1C(F)(F)F (stereo not drawn) [Compound 10]	0

same assay, conditions: 500 g ai/ha, 0 to 100 scale

Structure (SMILES)	Plant response rating, Pigweed
O=C1NCC(Cc2cccc(F)c2F)C1C(=O)Nc1ccccc1C(F)(F)F (stereo not drawn) [Compound 10]	0

tested on: rice (Oryza sativa); experiment: Test B flooded paddy test, rice; assay type: in vivo; conditions: Flood, 500 g ai/ha; scale of 0 to 100 where 0 is no effect and 100 is complete control; 13 to 15 d
Procedure: as §2

Structure (SMILES)	Plant response rating, Rice
O=C1NCC(Cc2cccc(F)c2F)C1C(=O)Nc1ccccc1C(F)(F)F (stereo not drawn) [Compound 10]	0

tested on: ryegrass, It. (Italian ryegrass, Lolium multiflorum); experiment: Test A postemergence, ryegrass, It.; assay type: in vivo; conditions: 125 g ai/ha, 0 to 100 scale
From the text: as §1

Structure (SMILES)	Plant response rating, Ryegrass, It.
O=C1NCC(Cc2cccc(F)c2F)C1C(=O)Nc1ccccc1C(F)(F)F (stereo not drawn) [Compound 10]	0

same assay, conditions: 500 g ai/ha, 0 to 100 scale

Structure (SMILES)	Plant response rating, Ryegrass, It.
O=C1NCC(Cc2cccc(F)c2F)C1C(=O)Nc1ccccc1C(F)(F)F (stereo not drawn) [Compound 10]	0

tested on: barnyardgrass (Echinochloa crus-galli); experiment: Test A postemergence, barnyardgrass; assay type: in vivo; conditions: 125 g ai/ha, 0 to 100 scale
From the text: as §1

Structure (SMILES)	Plant response rating, Barnyardgrass
O=C1NCC(Cc2cccc(F)c2F)C1C(=O)Nc1ccccc1C(F)(F)F (stereo not drawn) [Compound 10]	0

same assay, conditions: 500 g ai/ha, 0 to 100 scale

Structure (SMILES)	Plant response rating, Barnyardgrass
O=C1NCC(Cc2cccc(F)c2F)C1C(=O)Nc1ccccc1C(F)(F)F (stereo not drawn) [Compound 10]	0

tested on: pigweed (Amaranthus retroflexus); experiment: Test A postemergence, pigweed; assay type: in vivo; conditions: 125 g ai/ha, 0 to 100 scale
From the text: as §1

Structure (SMILES)	Plant response rating, Pigweed
O=C1NCC(Cc2cccc(F)c2F)C1C(=O)Nc1ccccc1C(F)(F)F (stereo not drawn) [Compound 10]	0

same assay, conditions: 500 g ai/ha, 0 to 100 scale

Structure (SMILES)	Plant response rating, Pigweed
O=C1NCC(Cc2cccc(F)c2F)C1C(=O)Nc1ccccc1C(F)(F)F (stereo not drawn) [Compound 10]	0

tested on: corn (Zea mays); experiment: Test A postemergence, corn; assay type: in vivo; conditions: 125 g ai/ha, 0 to 100 scale
From the text: as §1

Structure (SMILES)	Plant response rating, Corn
O=C1NCC(Cc2cccc(F)c2F)C1C(=O)Nc1ccccc1C(F)(F)F (stereo not drawn) [Compound 10]	0

same assay, conditions: 500 g ai/ha, 0 to 100 scale

Structure (SMILES)	Plant response rating, Corn
O=C1NCC(Cc2cccc(F)c2F)C1C(=O)Nc1ccccc1C(F)(F)F (stereo not drawn) [Compound 10]	0

tested on: barnyardgrass (Echinochloa crus-galli); experiment: Test A preemergence, barnyardgrass; assay type: in vivo; conditions: 125 g ai/ha, 0 to 100 scale
From the text: as §1

Structure (SMILES)	Plant response rating, Barnyardgrass
O=C1NCC(Cc2cccc(F)c2F)C1C(=O)Nc1ccccc1C(F)(F)F (stereo not drawn) [Compound 10]	0

same assay, conditions: 500 g ai/ha, 0 to 100 scale

Structure (SMILES)	Plant response rating, Barnyardgrass
O=C1NCC(Cc2cccc(F)c2F)C1C(=O)Nc1ccccc1C(F)(F)F (stereo not drawn) [Compound 10]	0

tested on: wheat (Triticum aestivum); experiment: Test A postemergence, wheat; assay type: in vivo; conditions: 125 g ai/ha, 0 to 100 scale
From the text: as §1

Structure (SMILES)	Plant response rating, Wheat
O=C1NCC(Cc2cccc(F)c2F)C1C(=O)Nc1ccccc1C(F)(F)F (stereo not drawn) [Compound 10]	0

same assay, conditions: 500 g ai/ha, 0 to 100 scale

Structure (SMILES)	Plant response rating, Wheat
O=C1NCC(Cc2cccc(F)c2F)C1C(=O)Nc1ccccc1C(F)(F)F (stereo not drawn) [Compound 10]	0

tested on: ducksalad (Heteranthera limosa); experiment: Test B flooded paddy test, ducksalad; assay type: in vivo; conditions: Flood, 500 g ai/ha; scale of 0 to 100 where 0 is no effect and 100 is complete control; 13 to 15 d
Procedure: as §2

Structure (SMILES)	Plant response rating, Ducksalad
O=C1NCC(Cc2cccc(F)c2F)C1C(=O)Nc1ccccc1C(F)(F)F (stereo not drawn) [Compound 10]	0

tested on: blackgrass (Alopecurus myosuroides); experiment: Test A postemergence, blackgrass; assay type: in vivo; conditions: 125 g ai/ha, 0 to 100 scale
From the text: as §1

Structure (SMILES)	Plant response rating, Blackgrass
O=C1NCC(Cc2cccc(F)c2F)C1C(=O)Nc1ccccc1C(F)(F)F (stereo not drawn) [Compound 10]	0

same assay, conditions: 500 g ai/ha, 0 to 100 scale

Structure (SMILES)	Plant response rating, Blackgrass
O=C1NCC(Cc2cccc(F)c2F)C1C(=O)Nc1ccccc1C(F)(F)F (stereo not drawn) [Compound 10]	0

tested on: foxtail, giant (giant foxtail, Setaria faberii); experiment: Test A postemergence, foxtail, giant; assay type: in vivo; conditions: 125 g ai/ha, 0 to 100 scale
From the text: as §1

Structure (SMILES)	Plant response rating, Foxtail, Giant
O=C1NCC(Cc2cccc(F)c2F)C1C(=O)Nc1ccccc1C(F)(F)F (stereo not drawn) [Compound 10]	0

same assay, conditions: 500 g ai/ha, 0 to 100 scale

Structure (SMILES)	Plant response rating, Foxtail, Giant
O=C1NCC(Cc2cccc(F)c2F)C1C(=O)Nc1ccccc1C(F)(F)F (stereo not drawn) [Compound 10]	0

tested on: ryegrass, It. (Italian ryegrass, Lolium multiflorum); experiment: Test A preemergence, ryegrass, It.; assay type: in vivo; conditions: 125 g ai/ha, 0 to 100 scale
From the text: as §1

Structure (SMILES)	Plant response rating, Ryegrass, It.
O=C1NCC(Cc2cccc(F)c2F)C1C(=O)Nc1ccccc1C(F)(F)F (stereo not drawn) [Compound 10]	0

same assay, conditions: 500 g ai/ha, 0 to 100 scale

Structure (SMILES)	Plant response rating, Ryegrass, It.
O=C1NCC(Cc2cccc(F)c2F)C1C(=O)Nc1ccccc1C(F)(F)F (stereo not drawn) [Compound 10]	0

tested on: sedge, umbrella (small-flower umbrella sedge, Cyperus difformis); experiment: Test B flooded paddy test, sedge, umbrella; assay type: in vivo; conditions: Flood, 500 g ai/ha; scale of 0 to 100 where 0 is no effect and 100 is complete control; 13 to 15 d
Procedure: as §2

Structure (SMILES)	Plant response rating, Sedge, Umbrella
O=C1NCC(Cc2cccc(F)c2F)C1C(=O)Nc1ccccc1C(F)(F)F (stereo not drawn) [Compound 10]	0

tested on: kochia (Kochia scoparia); experiment: Test A postemergence, kochia; assay type: in vivo; conditions: 125 g ai/ha, 0 to 100 scale
From the text: as §1

Structure (SMILES)	Plant response rating, Kochia
O=C1NCC(Cc2cccc(F)c2F)C1C(=O)Nc1ccccc1C(F)(F)F (stereo not drawn) [Compound 10]	0

same assay, conditions: 500 g ai/ha, 0 to 100 scale

Structure (SMILES)	Plant response rating, Kochia
O=C1NCC(Cc2cccc(F)c2F)C1C(=O)Nc1ccccc1C(F)(F)F (stereo not drawn) [Compound 10]	0

tested on: foxtail, giant (giant foxtail, Setaria faberii); experiment: Test A preemergence, foxtail, giant; assay type: in vivo; conditions: 125 g ai/ha, 0 to 100 scale
From the text: as §1

Structure (SMILES)	Plant response rating, Foxtail, Giant
O=C1NCC(Cc2cccc(F)c2F)C1C(=O)Nc1ccccc1C(F)(F)F (stereo not drawn) [Compound 10]	0

same assay, conditions: 500 g ai/ha, 0 to 100 scale

Structure (SMILES)	Plant response rating, Foxtail, Giant
O=C1NCC(Cc2cccc(F)c2F)C1C(=O)Nc1ccccc1C(F)(F)F (stereo not drawn) [Compound 10]	0
